Data: US12628802B2, “Genetically modified rat having PKHD1L1 gene with point mutation and methods for its construction, detection and use” (HUASHAN HOSPITAL AFFILIATED TO FUDAN UNIVERSITY, priority 2022, dated 2026)
“Also recorded” adds a separate entry of the source.

Assays:
[1] = test system: pyramidal neurons in the cerebral cortex; assay: Patch clamp recording of sEPSC and sIPSC of cortical pyramidal neurons in brain slices; assay type: cell-based, rat; settings: epilepsy group (PKHD1L1+/− rats) after H89 treatment
From the text: Results of Electrophysiological Examination of Transgenic Animal Brain Slices
In transgenic animals (PKHD1L1+/− rats), neuronal excitability increased, and H89 reduced the frequency of spontaneous excitatory post synaptic currents (sEPSC) in pyramidal neurons in the cerebral cortex.
A patch clamp technique was used to record sEPSC and sIPSC (e.g., spontaneous inhibitory post synaptic currents) of cortical pyramidal neurons […], and to observe the changes in excitatory synaptic transmission and inhibitory synaptic transmission of pyramidal neurons in each group of rats, so as to reflect any changes in neuronal excitability.

[2] = test system: pyramidal neurons in the cerebral cortex; assay: Recording of Na+ and K+ currents in pyramidal neurons in brain slices; assay type: cell-based, rat; settings: control, epilepsy and epilepsy+H89 groups compared
Protocol: Neuronal excitability is related to Na+ and K+ currents, so the Na+ and K+ currents in pyramidal neurons in the cerebral cortex of each group of rats (e.g., PKHD1L1+/− and wild-type) were recorded. As shown in FIGS. 15A-B, there was no difference in Na+ and K+ currents in pyramidal neurons of rats among all groups (3 young rats in each group, 6 cells in the control [WT] group, 6 cells in the epilepsy [e.g., PKHD1L1+/−] group, and 6 cells in the epilepsy+H89 group), […].

[3] = test system: pyramidal neurons in the cerebral cortex; assay: Recording of the action potential of pyramidal neurons in brain slices; assay type: cell-based, rat
Protocol: H89 can reduce the excitability of pyramidal neurons in the cerebral cortex of rats with epilepsy. In order to further confirm the excitability of pyramidal neurons in the cerebral cortex, the action potential of pyramidal neurons was recorded. Action potential can intuitively reflect the excitability of neurons. […] Compared with the control group (e.g., WT rats), the positive potential of the epileptic group was decreased after H89 treatment, and the neuronal potential was increased after H89 treatment (P>0.05). There was no difference in the peak and half-duration of the action potential between the two groups. […] It was shown that a reduced neuron action potential threshold in epileptic rats indicates […] of pyramidal neurons, and H89 reversed this trend and improved epileptic symptoms in rats (FIGS. 16A-F).

[4] = test system: wild-type (WT) rats; assay: PTZ-induced epilepsy model, wild-type rats; assay type: in vivo, rat
Protocol: (§1) Subsequently, the epileptic susceptibility of PKHD1L1+/− rats was studied using a PTZ-induced epilepsy model: A total of 10 male PKHD1L1+/− rats and 10 male wild-type (WT) rats with body weights matched with age (in weeks) were selected for inducing epileptic seizures with PTZ (40 mg/kg). The dose of PTZ selected is lower than the conventional dose in such animal modeling. Only 2 out of the 10 wild-type rats (20%), but 7 out of the 10 (70%) PKHD1L1+/− rats, were induced to have grand mal seizures of grade 4-5 (see FIG. 13A).

[5] = test system: PKHD1L1+/− rats; assay: PTZ-induced epilepsy model, PKHD1L1+/- rats; assay type: in vivo, rat; settings: PTZ 40 mg/kg
Protocol: as §1

O=S(=O)(NCCNC/C=C/c1ccc(Br)cc1)c1cccc2cnccc12 [H89]
sEPSC amplitude [1]: decreased | sEPSC frequency [1]: reduced; also recorded: decreased | K+ currents in pyramidal neurons [2]: no difference | Na+ currents in pyramidal neurons [2]: no difference | half-duration of the action potential ([3]; between groups): no difference | peak of the action potential ([3]; between groups): no difference | action potential threshold ([3]; epilepsy group after H89 treatment, P<0.05): increased | positive post-potential (neuronal potential) of the action potential ([3]; epilepsy group after H89 treatment, P>0.05): increased

C1CCc2nnnn2CC1 [PTZ, pentylenetetrazole]
rats induced to have grand mal seizures of grade 4-5 ([4]; PTZ 40 mg/kg, 10 male wild-type rats): 20% | mean dose of PTZ required to exhibit grade 4-5 seizures ([4]; additional 5 mg/kg at 15-minute intervals, wild-type rats compared with PKHD1L1+/− rats): statistically significantly higher | rats induced to have grand mal seizures of grade 4-5 ([5]; 10 male PKHD1L1+/− rats): 70% | maximum seizure level reached ([5]; PKHD1L1+/− rats compared with wild-type rats): significantly higher
